System: SEM cells
Assay: cell viability relative to DMSO control; higher = less cytotoxic
Settings: 48 h
Method in brief: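 Leukemia cells (NOMO1 or SEM, 500 cells/well; P12-Ichikawa, 1000 cells/well) were seeded in 5 μl in 1536-well plates after at least four passages of adaptation to each medium. They received library compounds in DMSO by pin dosing, 11 threefold points from 47 μM to 0.79 nM. Luminescence with CellTiter-Glo One was read after 48 h at 37°C. Viability is stated per plate relative to DMSO wells, with cell-free wells as background.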

[1] = HPLM + 10% dialyzed FBS, 0.000781 µM
[2] = HPLM + 10% dialyzed FBS, 0.00234 µM
[3] = HPLM + 10% dialyzed FBS, 0.00702 µM
[4] = HPLM + 10% dialyzed FBS, 0.0211 µM
[5] = HPLM + 10% dialyzed FBS, 0.0632 µM
[6] = HPLM + 10% dialyzed FBS, 0.19 µM
[7] = HPLM + 10% dialyzed FBS, 0.569 µM
[8] = HPLM + 10% dialyzed FBS, 1.71 µM
[9] = HPLM + 10% dialyzed FBS, 5.12 µM
[10] = HPLM + 10% dialyzed FBS, 15.4 µM
[11] = HPLM + 10% dialyzed FBS, 46.1 µM
[12] = RPMI 5 mM glucose + 10% FBS, 0.000781 µM
[13] = RPMI 5 mM glucose + 10% FBS, 0.00234 µM
[14] = RPMI 5 mM glucose + 10% FBS, 0.00702 µM
[15] = RPMI 5 mM glucose + 10% FBS, 0.0211 µM
[16] = RPMI 5 mM glucose + 10% FBS, 0.0632 µM
[17] = RPMI 5 mM glucose + 10% FBS, 0.19 µM
[18] = RPMI 5 mM glucose + 10% FBS, 0.569 µM
[19] = RPMI 5 mM glucose + 10% FBS, 1.71 µM
[20] = RPMI 5 mM glucose + 10% FBS, 5.12 µM
[21] = RPMI 5 mM glucose + 10% FBS, 15.4 µM
[22] = RPMI 5 mM glucose + 10% FBS, 46.1 µM
[23] = RPMI 5 mM glucose + 10% dialyzed FBS, 0.000781 µM
[24] = RPMI 5 mM glucose + 10% dialyzed FBS, 0.00234 µM
[25] = RPMI 5 mM glucose + 10% dialyzed FBS, 0.00702 µM
[26] = RPMI 5 mM glucose + 10% dialyzed FBS, 0.0211 µM
[27] = RPMI 5 mM glucose + 10% dialyzed FBS, 0.0632 µM
[28] = RPMI 5 mM glucose + 10% dialyzed FBS, 0.19 µM
[29] = RPMI 5 mM glucose + 10% dialyzed FBS, 0.569 µM
[30] = RPMI 5 mM glucose + 10% dialyzed FBS, 1.71 µM
[31] = RPMI 5 mM glucose + 10% dialyzed FBS, 5.12 µM
[32] = RPMI 5 mM glucose + 10% dialyzed FBS, 15.4 µM
[33] = RPMI 5 mM glucose + 10% dialyzed FBS, 46.1 µM

| Compound | cell viability [1] [%] | cell viability [2] [%] | cell viability [3] [%] | cell viability [4] [%] | cell viability [5] [%] | cell viability [6] [%] | cell viability [7] [%] | cell viability [8] [%] | cell viability [9] [%] | cell viability [10] [%] | cell viability [11] [%] | cell viability [12] [%] | cell viability [13] [%] | cell viability [14] [%] | cell viability [15] [%] | cell viability [16] [%] | cell viability [17] [%] | cell viability [18] [%] | cell viability [19] [%] | cell viability [20] [%] | cell viability [21] [%] | cell viability [22] [%] | cell viability [23] [%] | cell viability [24] [%] | cell viability [25] [%] | cell viability [26] [%] | cell viability [27] [%] | cell viability [28] [%] | cell viability [29] [%] | cell viability [30] [%] | cell viability [31] [%] | cell viability [32] [%] | cell viability [33] [%] |
| --- | --- | --- | --- | --- | --- | --- | --- | --- | --- | --- | --- | --- | --- | --- | --- | --- | --- | --- | --- | --- | --- | --- | --- | --- | --- | --- | --- | --- | --- | --- | --- | --- | --- |
| C=C(C)[C@@H]1CC[C@]2(C)CC[C@]3(C)[C@H](CC[C@@H]4[C@@]5(C)CC[C@H](O)C(C)(C)[C@@H]5CC[C@]43C)[C@@H]12 | 86.4 | 103 | 101 | 91.6 | 89 | 100 | 11 | 109 | 111 | 123 | 121 | 97.5 | 107 | 112 | 103 | 104 | 113 | 10 | 110 | 135 | 126 | 124 | 81.3 | 98.5 | 104 | 99.3 | 102 | 108 | 8.47 | 111 | 101 | 90.5 | 104 |
| Cc1[nH]c(/C=C2\C(=O)Nc3ccc([S+](=O)([O-])N(C)c4cccc(Cl)c4)cc32)c(C)c1C(=O)N1CCN(C)CC1 | 101 | 120 | 113 | 125 | 129 | 108 | 114 | 98.3 | 71.5 | 38.6 | 2.39 | 98.4 | 111 | 118 | 107 | 96.9 | 82 | 106 | 86.5 | 54.3 | 31.3 | 1.69 |  |  |  |  |  |  |  |  |  |  |  |
| NC(=O)N1c2ccccc2CC(=O)c2ccccc21 |  |  |  |  |  |  |  |  |  |  |  | 124 | 135 | 121 | 132 | 126 | 123 | 139 | 137 | 137 | 161 | 142 | 110 | 116 | 114 | 117 | 129 | 118 | 105 | 124 | 122 | 123 | 147 |
| Cc1ccc(NC(=O)C2(c3ccc4c(c3)OC(F)(F)O4)CC2)nc1-c1cccc(C(=O)O)c1 | 106 | 87.4 | 109 | 111 | 93.5 | 13.7 | 16.4 | 16.7 | 9.88 | 9.04 | 6.17 | 87.2 | 86.6 | 91.6 | 91.5 | 62.6 | 11.1 | 10.5 | 10.5 | 8.17 | 7.53 | 5.47 | 97.9 | 98.3 | 97.7 | 107 | 71.9 | 14.9 | 13.2 | 16.6 | 9.71 | 8.66 | 6.45 |
| COc1cc2nccc(Oc3ccc(NC(=O)Nc4cc(C)on4)c(Cl)c3)c2cc1OC | 112 | 116 | 107 | 107 | 114 | 102 | 100 | 71.2 | 64.1 | 59.9 | 33.1 | 86.4 | 85.2 | 79.9 | 74.3 | 82.1 | 72.5 | 73.9 | 49.6 | 33 | 31.3 | 14.1 | 112 | 125 | 123 | 107 | 108 | 115 | 112 | 71.5 | 61.3 | 43 | 20.1 |
| CCOC(=O)C/1=C(C)/NC(=S)NC1C2=CC=CC(=C2)O (configuration not stated) | 110 | 99.3 | 103 | 111 | 68.2 | 24.3 | 22.9 | 22.4 | 7.01 | 16 | 15.2 | 89.4 | 104 | 118 | 109 | 109 | 20.5 | 15.2 | 12 | 6.19 | 7.56 | 3.89 | 100 | 100 | 108 | 106 | 101 | 47.2 | 21.2 | 20.8 | 5.56 | 14.3 | 8.93 |
| C[C@H]([C@H](O)CCC(C)(C)O)[C@H]1CC[C@@]2(O)C/3=C/C(=O)[C@@H]4C[C@@H](O)[C@@H](O)C[C@]4(C)[C@H]3CC[C@]12C | 111 | 119 | 102 | 122 | 103 | 109 | 110 | 112 | 108 | 101 | 106 | 132 | 104 | 113 | 125 | 115 | 113 | 119 | 123 | 125 | 110 | 98 |  |  |  |  |  |  |  |  |  |  |  |
| CCC1=C[C@@H]2CN(C1)Cc1c([nH]c3ccccc13)[C@@](C(=O)OC)(c1cc3c(cc1OC)N(C)[C@H]1[C@@](O)(C(=O)OC)[C@H](OC(C)=O)[C@]4(CC)C=CCN5CC[C@]31[C@@H]54)C2 | 119 | 117 | 110 | 92.7 | 75.9 | 32 | 25.5 | 24.1 | 23.6 | 26.7 | 17.3 |  |  |  |  |  |  |  |  |  |  |  | 108 | 106 | 99.7 | 86.5 | 62.9 | 30 | 23.9 | 22 | 24.9 | 26.3 | 12.4 |
| O=C1Nc2ccccc2/C1=C1\Nc2ccccc2C1=O | 82.1 | 85.1 | 85.5 | 84.9 | 80.4 | 64.2 | 63.3 | 75 | 73.9 | 86.8 | 69.8 | 104 | 87.4 | 90.6 | 87.5 | 90.1 | 79.4 | 84 | 71.2 | 81.4 | 78.4 | 77.7 | 89.2 | 91.7 | 85.2 | 85.4 | 82.5 | 70.6 | 60.6 | 67 | 74.4 | 86 | 80.3 |
| CC#C[C@]1(O)CC[C@H]2[C@@H]/3CCC/4=C/C(=O)CCC4=C3[C@H](C[C@]12C)C5=CC=C(C=C5)N(C)C | 76.6 | 74.8 | 88.3 | 80.4 | 68.9 | 87.4 | 84.1 | 89.9 | 89.9 | 86.1 | 58.7 | 76 | 84.6 | 99.9 | 102 | 96 | 86.3 | 105 | 92.7 | 96.1 | 73 | 58.3 | 87.2 | 91.6 | 101 | 110 | 92 | 90.3 | 96 | 84 | 92.8 | 83 | 49.5 |
| CCOC(=O)Nc1ccc(NCc2ccc(F)cc2)cc1N | 122 | 122 | 128 | 120 | 103 | 123 | 119 | 112 | 113 | 107 | 90 | 115 | 116 | 123 | 136 | 102 | 131 | 122 | 111 | 113 | 134 | 97.7 | 106 | 132 | 121 | 128 | 123 | 124 | 112 | 122 | 124 | 122 | 83.5 |
| O=C1\C=C(/OC2=C1C=CC=C2C3=CC=CC=C3)N4CCOCC4 | 45.8 | 90.5 | 89.2 | 80.6 | 65.1 | 89.3 | 90.3 | 59 | 87.3 | 92.3 | 58.3 | 71.7 | 114 | 111 | 115 | 75.6 | 91.8 | 110 | 74 | 114 | 94.6 | 79.6 | 48.9 | 90 | 88.3 | 94.4 | 66.7 | 80 | 86.5 | 61.9 | 101 | 84.7 | 62.7 |
| COc1cc(N2CCC(O)CC2)ccc1Nc1cc(Nc2ccccc2[S+](=O)([O-])C(C)C)c2cc[nH]c2n1 | 87.5 | 71.5 | 79.4 | 79.2 | 81.4 | 58.7 | 34.3 | 83.4 | 44 | 17.7 | 22.2 |  |  |  |  |  |  |  |  |  |  |  | 93.2 | 94.6 | 82.4 | 96.8 | 86.3 | 60.7 | 27.6 | 81.1 | 53.9 | 21.1 | 18.3 |
| CC(C)C[C@H](CN)CC(=O)O | 110 | 116 | 105 | 111 | 97.6 | 98.8 | 115 | 102 | 119 | 37.9 | 93.9 | 102 | 102 | 98.7 | 105 | 93.9 | 88.7 | 104 | 113 | 103 | 41.2 | 92.1 | 101 | 105 | 107 | 103 | 110 | 102 | 113 | 109 | 97.1 | 38.8 | 110 |
| C[C@@H]1C[C@H]2[C@@H]3\C=C(C)/C4=C/C5=C(C[C@]4(C)[C@H]3[C@@H](O)C[C@]2(C)[C@@]1(O)C(=O)COC(C)=O)C=N[N]5C6=CC=CC=C6 | 134 | 120 | 111 | 104 | 85.4 | 67.8 | 66.4 | 56.8 | 59.7 | 59.9 | 58.8 |  |  |  |  |  |  |  |  |  |  |  | 143 | 117 | 116 | 97.7 | 75 | 63.1 | 52.8 | 54.9 | 46.1 | 43.3 | 35.5 |
| O=C1CSC(=O)N1C(CCc1ccncc1)COc1ccc(-c2cccc([N+](=O)[O-])c2)cc1 (configuration not stated) | 119 | 123 | 109 | 115 | 118 | 92.4 | 114 | 95.6 | 111 | 112 | 79.5 | 123 | 118 | 132 | 118 | 112 | 117 | 117 | 109 | 98.6 | 82.7 | 48.9 | 105 | 131 | 105 | 123 | 135 | 116 | 128 | 117 | 106 | 116 | 75.1 |

Reference: the supplement of paper PMC11451515
